Source: patent US11572590B2, “Methods for evaluating tumor cell spheroids using 3D microfluidic cell culture device” (Dana-Farber Cancer Institute, Inc., priority 2017, dated 2023)
Read-outs that look alike come from different tables or passages of the source.

Legend:
Assay in all cases: SelectScreen Kinase Profiling, single point inhibition and IC50 for off-target kinases
Type in all cases: biochemical
[1] = target: off-target kinases (Homo sapiens, UniProt P49137); details: MAPKAPK2, ZLYTE, ATP Km app
[2] = target: off-target kinases (Homo sapiens, UniProt P50750)
[3] = target: T1, off-target kinases (Homo sapiens, UniProt Q12866, A708S); details: MERTK (cMER) A708S, mutant y, LanthaScreen Binding
T1 sequence (Q12866 21-999 A708S): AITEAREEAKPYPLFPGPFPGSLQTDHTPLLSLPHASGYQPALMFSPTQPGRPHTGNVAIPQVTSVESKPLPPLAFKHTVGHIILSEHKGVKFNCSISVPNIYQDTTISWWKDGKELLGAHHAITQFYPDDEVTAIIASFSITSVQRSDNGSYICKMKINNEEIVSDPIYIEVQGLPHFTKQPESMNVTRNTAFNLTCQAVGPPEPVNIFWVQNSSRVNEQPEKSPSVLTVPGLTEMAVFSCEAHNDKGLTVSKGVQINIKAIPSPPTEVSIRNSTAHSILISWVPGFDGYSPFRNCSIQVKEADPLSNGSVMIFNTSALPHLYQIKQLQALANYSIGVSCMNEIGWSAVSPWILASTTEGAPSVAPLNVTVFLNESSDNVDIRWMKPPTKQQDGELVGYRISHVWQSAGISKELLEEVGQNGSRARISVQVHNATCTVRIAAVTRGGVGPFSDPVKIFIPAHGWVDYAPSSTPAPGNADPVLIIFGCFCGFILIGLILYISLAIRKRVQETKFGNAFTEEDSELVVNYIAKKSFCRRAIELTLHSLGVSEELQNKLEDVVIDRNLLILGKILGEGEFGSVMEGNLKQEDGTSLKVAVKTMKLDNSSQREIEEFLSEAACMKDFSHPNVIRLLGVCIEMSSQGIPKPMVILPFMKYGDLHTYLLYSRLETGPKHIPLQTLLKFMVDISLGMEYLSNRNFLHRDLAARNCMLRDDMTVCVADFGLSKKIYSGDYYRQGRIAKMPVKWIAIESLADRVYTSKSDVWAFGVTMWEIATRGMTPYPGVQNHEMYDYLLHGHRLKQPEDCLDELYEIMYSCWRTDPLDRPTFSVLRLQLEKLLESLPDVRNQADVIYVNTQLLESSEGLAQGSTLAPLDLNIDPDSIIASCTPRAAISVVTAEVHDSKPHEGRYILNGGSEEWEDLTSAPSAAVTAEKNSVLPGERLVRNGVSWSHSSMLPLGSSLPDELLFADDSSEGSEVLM

[4] = target: off-target kinases (Homo sapiens, UniProt P17948); details: FLT1 (VEGFR1), ZLYTE, ATP Km app
[5] = target: off-target kinases (Homo sapiens, UniProt Q15375); details: EPHA7, LanthaScreen Binding
[6] = target: off-target kinases (Homo sapiens, UniProt Q16584); details: MAP3K11 (MLK3), LanthaScreen Binding
[7] = target: off-target kinases (Homo sapiens, UniProt Q13557); details: CAMK2D (CaMKII delta), ZLYTE, ATP Km app
off-target kinases (Homo sapiens, UniProt Q13557), sequence (Q13557 whole entry): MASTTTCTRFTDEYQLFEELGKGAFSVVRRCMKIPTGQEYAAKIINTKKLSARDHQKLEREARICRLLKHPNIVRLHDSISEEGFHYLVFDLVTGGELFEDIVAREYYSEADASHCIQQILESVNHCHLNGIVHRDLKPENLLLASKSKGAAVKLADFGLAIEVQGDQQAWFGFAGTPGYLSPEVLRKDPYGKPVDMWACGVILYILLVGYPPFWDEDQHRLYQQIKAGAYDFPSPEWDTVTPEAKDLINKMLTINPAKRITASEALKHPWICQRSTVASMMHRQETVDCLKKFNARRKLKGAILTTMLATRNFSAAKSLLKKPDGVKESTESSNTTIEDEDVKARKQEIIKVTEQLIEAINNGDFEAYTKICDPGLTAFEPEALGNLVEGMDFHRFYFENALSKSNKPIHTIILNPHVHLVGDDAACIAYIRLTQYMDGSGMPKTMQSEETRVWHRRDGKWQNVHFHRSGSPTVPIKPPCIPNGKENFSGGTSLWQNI

off-target kinases (Homo sapiens, UniProt P17948), sequence (P17948 27-1338): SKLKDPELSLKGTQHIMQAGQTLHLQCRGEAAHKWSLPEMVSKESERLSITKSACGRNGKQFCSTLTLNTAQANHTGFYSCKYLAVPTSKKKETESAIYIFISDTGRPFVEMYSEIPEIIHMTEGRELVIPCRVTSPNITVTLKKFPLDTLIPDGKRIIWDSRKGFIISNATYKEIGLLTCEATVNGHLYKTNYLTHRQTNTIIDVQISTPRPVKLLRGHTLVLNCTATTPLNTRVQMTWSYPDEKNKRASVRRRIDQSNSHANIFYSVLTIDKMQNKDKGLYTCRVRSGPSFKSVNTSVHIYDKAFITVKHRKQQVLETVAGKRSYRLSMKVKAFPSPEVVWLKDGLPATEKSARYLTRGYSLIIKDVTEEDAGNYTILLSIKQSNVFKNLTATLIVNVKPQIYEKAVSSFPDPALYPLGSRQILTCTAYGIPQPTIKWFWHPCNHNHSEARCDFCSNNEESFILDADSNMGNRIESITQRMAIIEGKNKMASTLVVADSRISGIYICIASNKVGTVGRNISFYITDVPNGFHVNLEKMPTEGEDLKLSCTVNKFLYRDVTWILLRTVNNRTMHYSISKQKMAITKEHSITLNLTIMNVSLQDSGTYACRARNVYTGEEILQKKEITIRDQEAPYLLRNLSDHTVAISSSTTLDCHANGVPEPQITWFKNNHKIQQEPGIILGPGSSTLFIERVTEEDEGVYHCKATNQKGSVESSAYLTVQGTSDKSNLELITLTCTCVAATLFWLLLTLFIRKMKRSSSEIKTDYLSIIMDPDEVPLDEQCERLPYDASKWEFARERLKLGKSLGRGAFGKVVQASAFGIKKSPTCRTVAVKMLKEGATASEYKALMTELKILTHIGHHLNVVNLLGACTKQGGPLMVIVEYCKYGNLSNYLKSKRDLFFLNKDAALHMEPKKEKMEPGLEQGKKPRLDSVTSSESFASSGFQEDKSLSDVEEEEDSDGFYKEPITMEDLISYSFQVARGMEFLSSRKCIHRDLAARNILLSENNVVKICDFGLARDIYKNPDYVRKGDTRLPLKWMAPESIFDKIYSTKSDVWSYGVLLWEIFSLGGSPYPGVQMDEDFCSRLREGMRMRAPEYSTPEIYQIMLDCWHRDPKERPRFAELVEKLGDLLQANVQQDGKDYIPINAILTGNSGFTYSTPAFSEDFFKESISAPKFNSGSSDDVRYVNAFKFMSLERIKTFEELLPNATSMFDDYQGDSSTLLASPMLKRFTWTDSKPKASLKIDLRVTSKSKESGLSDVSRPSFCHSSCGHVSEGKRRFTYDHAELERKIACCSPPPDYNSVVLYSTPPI
off-target kinases (Homo sapiens, UniProt Q15375), sequence (Q15375 28-998): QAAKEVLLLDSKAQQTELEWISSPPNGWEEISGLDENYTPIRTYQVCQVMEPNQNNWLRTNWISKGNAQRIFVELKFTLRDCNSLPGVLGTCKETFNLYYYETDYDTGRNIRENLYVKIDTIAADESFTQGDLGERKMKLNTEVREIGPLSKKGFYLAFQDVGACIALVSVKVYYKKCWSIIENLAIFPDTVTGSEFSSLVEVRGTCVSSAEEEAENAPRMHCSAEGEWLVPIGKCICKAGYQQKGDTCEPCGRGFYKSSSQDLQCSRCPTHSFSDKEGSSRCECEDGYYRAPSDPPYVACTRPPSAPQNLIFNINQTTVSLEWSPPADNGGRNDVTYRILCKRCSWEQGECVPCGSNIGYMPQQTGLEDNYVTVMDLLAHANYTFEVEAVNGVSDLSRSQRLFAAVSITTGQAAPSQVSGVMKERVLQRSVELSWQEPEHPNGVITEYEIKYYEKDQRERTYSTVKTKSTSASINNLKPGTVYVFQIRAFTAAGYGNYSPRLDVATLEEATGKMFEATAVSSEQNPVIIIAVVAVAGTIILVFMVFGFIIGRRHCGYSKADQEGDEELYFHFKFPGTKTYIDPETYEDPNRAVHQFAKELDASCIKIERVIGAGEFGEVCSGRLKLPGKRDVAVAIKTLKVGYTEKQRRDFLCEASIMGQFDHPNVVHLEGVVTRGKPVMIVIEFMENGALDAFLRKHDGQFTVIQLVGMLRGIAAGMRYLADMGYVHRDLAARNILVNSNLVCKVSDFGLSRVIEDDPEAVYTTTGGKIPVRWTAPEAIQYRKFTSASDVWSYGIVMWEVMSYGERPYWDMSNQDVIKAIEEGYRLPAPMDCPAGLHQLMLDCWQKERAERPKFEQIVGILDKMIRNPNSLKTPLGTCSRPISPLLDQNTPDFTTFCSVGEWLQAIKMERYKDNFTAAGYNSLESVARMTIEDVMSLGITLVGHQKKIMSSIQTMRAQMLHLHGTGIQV
off-target kinases (Homo sapiens, UniProt P49137), sequence (P49137 whole entry): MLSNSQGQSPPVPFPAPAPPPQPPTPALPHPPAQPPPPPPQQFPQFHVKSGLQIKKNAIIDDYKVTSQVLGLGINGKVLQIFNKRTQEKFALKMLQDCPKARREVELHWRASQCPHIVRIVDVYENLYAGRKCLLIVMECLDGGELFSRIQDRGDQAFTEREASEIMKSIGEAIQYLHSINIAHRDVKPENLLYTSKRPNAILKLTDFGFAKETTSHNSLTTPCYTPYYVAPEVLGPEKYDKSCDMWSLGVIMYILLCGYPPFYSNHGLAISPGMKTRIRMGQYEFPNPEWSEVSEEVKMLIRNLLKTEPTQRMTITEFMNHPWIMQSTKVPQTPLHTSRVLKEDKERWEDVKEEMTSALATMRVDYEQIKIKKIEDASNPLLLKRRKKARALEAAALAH
off-target kinases (Homo sapiens, UniProt P50750), sequence (P50750 whole entry): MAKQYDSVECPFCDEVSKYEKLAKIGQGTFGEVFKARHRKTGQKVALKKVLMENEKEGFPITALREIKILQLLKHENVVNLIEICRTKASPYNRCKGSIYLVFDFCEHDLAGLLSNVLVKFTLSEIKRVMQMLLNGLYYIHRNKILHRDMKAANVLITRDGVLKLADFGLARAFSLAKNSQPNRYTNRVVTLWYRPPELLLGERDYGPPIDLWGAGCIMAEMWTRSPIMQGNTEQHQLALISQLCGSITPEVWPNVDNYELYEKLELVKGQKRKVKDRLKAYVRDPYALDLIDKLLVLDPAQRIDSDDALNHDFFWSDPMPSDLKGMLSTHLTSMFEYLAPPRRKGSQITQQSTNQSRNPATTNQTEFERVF
off-target kinases (Homo sapiens, UniProt Q16584), sequence (Q16584 whole entry): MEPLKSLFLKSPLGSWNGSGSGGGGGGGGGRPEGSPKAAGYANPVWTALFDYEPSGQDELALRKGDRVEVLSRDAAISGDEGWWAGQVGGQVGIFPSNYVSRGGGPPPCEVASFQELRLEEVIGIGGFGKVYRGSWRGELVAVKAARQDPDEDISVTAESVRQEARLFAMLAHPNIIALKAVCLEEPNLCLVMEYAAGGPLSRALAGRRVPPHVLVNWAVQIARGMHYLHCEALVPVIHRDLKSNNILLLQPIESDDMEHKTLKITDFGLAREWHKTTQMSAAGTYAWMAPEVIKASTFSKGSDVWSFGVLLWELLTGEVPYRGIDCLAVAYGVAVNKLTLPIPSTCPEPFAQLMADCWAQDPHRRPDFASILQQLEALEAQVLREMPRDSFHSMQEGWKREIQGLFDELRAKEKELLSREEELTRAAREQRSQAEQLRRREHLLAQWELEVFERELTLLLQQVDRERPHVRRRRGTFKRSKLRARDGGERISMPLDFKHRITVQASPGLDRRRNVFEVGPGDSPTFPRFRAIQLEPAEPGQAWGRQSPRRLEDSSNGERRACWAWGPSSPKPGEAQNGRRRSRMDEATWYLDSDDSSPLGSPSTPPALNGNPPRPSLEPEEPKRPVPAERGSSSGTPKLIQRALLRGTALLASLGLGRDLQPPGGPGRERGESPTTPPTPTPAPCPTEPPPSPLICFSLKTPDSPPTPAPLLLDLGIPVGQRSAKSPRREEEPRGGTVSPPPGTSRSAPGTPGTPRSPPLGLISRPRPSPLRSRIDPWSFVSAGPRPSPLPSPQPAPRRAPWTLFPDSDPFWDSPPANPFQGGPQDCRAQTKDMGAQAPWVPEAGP

N#Cc1cc(-c2ncnc(Nc3ccc(N4CCN(C5COC5)CC4)cc3)n2)ccc1OC1CCOCC1 [Compound 1, 5-(4-((4-(4-(oxetan-3-yl)piperazin-1-yl)phenyl)amino)-1,3,5-triazin-2-yl)-2-((tetrahydro-2H-pyran-4-yl)oxy)benzonitrile]
inhibition ([1]; read-out: % Inhibition 1): 0%
inhibition ([1]; read-out: % Inhibition 2): -1%
inhibition ([1]; read-out: % Inhibition Avg): 0%
inhibition ([2]; CDK9 (Inactive), LanthaScreen Binding, read-out: % Inhibition 1): 8%
inhibition ([2]; CDK9 (Inactive), LanthaScreen Binding, read-out: % Inhibition 2): 13%
inhibition ([2]; CDK9 (Inactive), LanthaScreen Binding, read-out: % Inhibition Avg): 10%
inhibition ([2]; CDK9/cyclin K, LanthaScreen Binding, read-out: % Inhibition 1): 11%
inhibition ([2]; CDK9/cyclin K, LanthaScreen Binding, read-out: % Inhibition 2): 9%
inhibition ([2]; CDK9/cyclin K, LanthaScreen Binding, read-out: % Inhibition Avg): 10%
inhibition ([2]; CDK9/cyclin T1, Adapta, ATP Km app, read-out: % Inhibition 1): 18%
inhibition ([2]; CDK9/cyclin T1, Adapta, ATP Km app, read-out: % Inhibition 2): 22%
inhibition ([2]; CDK9/cyclin T1, Adapta, ATP Km app, read-out: % Inhibition Avg): 20%
inhibition ([3]; read-out: % Inhibition 1): 24%
inhibition ([3]; read-out: % Inhibition 2): 27%
inhibition ([3]; read-out: % Inhibition Avg): 26%
inhibition ([4]; read-out: % Inhibition 1): 7%
inhibition ([4]; read-out: % Inhibition 2): 4%
inhibition ([4]; read-out: % Inhibition Avg): 6%
inhibition ([5]; read-out: % Inhibition 1): 10%
inhibition ([5]; read-out: % Inhibition 2): 12%
inhibition ([5]; read-out: % Inhibition Avg): 11%
inhibition ([6]; read-out: % Inhibition 1): 24%
inhibition ([6]; read-out: % Inhibition 2): 29%
inhibition ([6]; read-out: % Inhibition Avg): 26%
inhibition ([7]; read-out: % Inhibition 1): 18%
inhibition ([7]; read-out: % Inhibition 2): 19%
inhibition ([7]; read-out: % Inhibition Avg): 19%
